The text below walks through data of patent US20250066370A1, “BICYCLIC TRIAZINE DERIVATIVES FOR THE TREATMENT OF CANCER” (DEUTSCHES KREBSFORSCHUNGSZENTRUM, priority 2022, published 2025).

The test system of one test is CAL-120-CDK12d-res. Kind of test: Proliferation assay CDK12 degrader resistant CAL-120. Type of test: cell-based, human. As to conditions: for IC50: Homo sapiens, 96 h, CDK12 degrader resistant CAL-120 cells, 4 days, median, read-out: Prolif-CAL-120-CDK12d-res, IC50 - [mol/l] (median); for Ratio (Prolif-CAL-120-CDK12d-res IC50 / Prolif-CAL-120 IC50): resistant versus parental CAL-120 cells. The text has this:
CDK12-degrader resistant cells were generated by propagation of CAL-120 human breast adenocarcinoma cells (DSMZ ACC-459) and MDA-MB-231 human breast cancer cells (ATCC HTB-26) in presence of increasing concentrations of the CDK12 degrader compound example 4 from WO 2021/116178. Initial concentrations of example 4 were 2.0E-08 M for CAL-120 cells and 4.6E-08 M for MDA-MB-231 cells, corresponding to ca. 2-fold the IC50 of inhibition of the cells in an proliferation assay. After the treated cells recovered and proliferated again the concentration of compound example 4 was increased to 3-fold IC50.
To determine the inhibitory effect of test compounds on proliferation of CAL-120-CDK12d-res, MDA-MB-231-CDK12d-res the cells were plated at a density of 4,000 cells/well in a 96-well multitier plate in 200 microL of their respective growth medium supplemented 10% fetal calf serum. After 24 hours, the cells of one plate (zero-point plate) were stained with crystal violet (see below), while the medium of the other plates was supplemented with the test substances in various concentrations (0 micromol/L, as well as in the range of 0.01-10 micromol/L; the final concentration of the solvent dimethyl sulfoxide was adjusted to 0.1%) using a Tecan HP D300 Digital Dispenser. The cells were incubated for 4 days in the presence of test substances. Cell proliferation was determined by staining the cells with crystal violet: the cells were fixed by adding 20 microL/measuring point of an 11% glutaric aldehyde solution for 15 minutes at room temperature. After three washing cycles of the fixed cells with water, the plates were dried at room temperature. The cells were stained by adding 100 microL/measuring point of a 0.1% crystal violet solution (pH 3.0). After three washing cycles of the stained cells with water, the plates were dried at room temperature. The dye was dissolved by adding 100 microL/measuring point of a 10% acetic acid solution. The extinction was determined by photometry at a wavelength of 595 nm. The change of cell number, in percent, was calculated by normalization of the measured values to the extinction values of the zero-point plate (=0%) and the extinction of the untreated (0 μM) cells (=100%). The IC50 values (inhibitory concentration at 50% of maximal effect) were determined by means of a 4 parameter fit.

For the next test, the system named is NCI-H1299. Kind of test: Proliferation assay: cell line panel, NCI-H1299. Type of test: cell-based. As to conditions: Homo sapiens, 96 h, lung cancer, non-small cell, 4 days, read-out: Result Category, IC50 (mean). From the text: (§1) Human tumour cells were originally obtained from the American Type Culture Collection (ATCC), from Cell Line Services GmbH (CLS), from the Deutsche Sammlung von Mikroorganismen und Zellkulturen (DSMZ, German Collection of Microorganisms and Cell Cultures), from the Japanese Cancer Research Resources Bank (JCRB), from Public Health England, from the European Collection of Authenticated Cell Cultures (ECACC), from Asterand Biosciences, or from the National Cancer Institute (NCI). Cultivated tumour cells were plated at the density as indicated in Table 6 in 96-well multitier plates in 200 microL of their respective growth medium supplemented 10% fetal calf serum. […] Cell proliferation was determined by staining the cells with crystal violet: the cells were fixed by adding 20 microL/measuring point of an 11% glutaric aldehyde solution for 15 minutes at room temperature. […] The extinction was determined by photometry at a wavelength of 595 nm. The change of cell number, in percent, was calculated by normalization of the measured values to the extinction values of the zero-point plate (=0%) and the extinction of the untreated (0 μM) cells (=100%). […]

In another test the test system is AU565. The test is described as follows: Proliferation assay: cell line panel, AU565. Type of test: cell-based. Particulars: Homo sapiens, 96 h, breast cancer, HER2 positive, 4 days, read-out: Result Category, IC50 (mean).
Text: as §1

The next test relates to BT474. Kind of test: Proliferation assay: cell line panel, BT474. Type of test: cell-based. As to conditions: Homo sapiens, BT-474, 96 h, breast cancer, HER2 positive, 4 days, read-out: Result Category, IC50 (mean).
Text: as §1

The test system of a further test is EFM192A. The test is described as follows: Proliferation assay: cell line panel, EFM192A. Type of test: cell-based. As to conditions: Homo sapiens, EFM-192A, 96 h, breast cancer, HER2 positive, 4 days, read-out: Result Category, IC50 (mean).
Text: as §1

Another test has as its system HCC1806. The test is described as follows: Proliferation assay: cell line panel, HCC1806. Type of test: cell-based. As to conditions: Homo sapiens, 96 h, breast cancer, triple-negative, 4 days, read-out: Result Category, IC50 (mean).
Text: as §1

For a further test, the system named is JHH-7. Kind of test: Proliferation assay: cell line panel, JHH-7. Type of test: cell-based. Particulars: Homo sapiens, JHH7, 96 h, liver cancer, 4 days, read-out: Result Category, IC50 (mean).
Text: as §1

The next test relates to HCC1419. The test is described as follows: Proliferation assay: cell line panel, HCC1419. Type of test: cell-based. As to conditions: Homo sapiens, 96 h, breast cancer, HER2 positive, 4 days, read-out: Result Category, IC50 (mean).
Text: as §1

The next test relates to MDA-MB-468. The test is described as follows: Proliferation assay: cell line panel, MDA-MB-468. As to conditions: Homo sapiens, 96 h, breast cancer, triple-negative, 4 days, read-out: Result Category, IC50 (mean). Type of test: cell-based.
Text: as §1

The next test concerns HUH-7. The test is described as follows: Proliferation assay: cell line panel, HUH-7. Type of test: cell-based. As to conditions: Homo sapiens, 96 h, liver cancer, 4 days, read-out: Result Category, IC50 (mean).
Text: as §1

For the next test, the system named is HT-144. The test is described as follows: Proliferation assay: cell line panel, HT-144. Type of test: cell-based. Particulars: Homo sapiens, 96 h, melanoma, 4 days, read-out: Result Category, IC50 (mean).
Text: as §1

In another test the test system is CAL-120. Kind of test: Proliferation assay: cell line panel, CAL-120. Type of test: cell-based. Particulars: Homo sapiens, 96 h, breast cancer, triple-negative, 4 days, read-out: Result Category, IC50 (mean).
Text: as §1

For the next test, the system named is HCC1143. The test is described as follows: Proliferation assay: cell line panel, HCC1143. Type of test: cell-based. Particulars: Homo sapiens, 96 h, breast cancer, triple-negative, 4 days, read-out: Result Category, IC50 (mean).
Text: as §1

The next test deals with MDA-MB-231. The test is described as follows: Proliferation assay: cell line panel, MDA-MB-231. Type of test: cell-based. Particulars: Homo sapiens, 96 h, breast cancer, triple-negative, 4 days, read-out: Result Category, IC50 (mean).
Text: as §1

A further test concerns COV318. Kind of test: Proliferation assay: cell line panel, COV318. Type of test: cell-based. Particulars: Homo sapiens, 96 h, ovarian cancer, 4 days, read-out: Result Category, IC50 (mean).
Text: as §1

As to `COc1ccc(-c2nnc(CNc3nc(N4CCOCC4)nn4c(C(F)(F)F)cnc34)[nH]2)cn1` [Example 18, N-{[5-(6-methoxypyridin-3-yl)-4H-1,2,4-triazol-3-yl]methyl}-2-(morpholin-4-yl)-7-(trifluoromethyl)imidazo[2,1-f][1,2,4]triazin-4-amine], in the test on CAL-120-CDK12d-res, the IC50 came to 252 nM and the “Ratio (Prolif-CAL-120-CDK12d-res IC50 / Prolif-CAL-120 IC50)” value is listed as 2.4.

As for `FC(F)(F)c1ccc(-c2cnc(CNc3nc(N4CCOCC4)nc4c(C(F)(F)F)cnn34)[nH]2)cc1` [Example 9, 2-(morpholin-4-yl)-8-(trifluoromethyl)-N-({5-[4-(trifluoromethyl)phenyl]-1H-imidazol-2-yl}methyl)pyrazolo[1,5-a][1,3,5]triazin-4-amine], in the test with CAL-120-CDK12d-res, the IC50 is 105 nM and the “Ratio (Prolif-CAL-120-CDK12d-res IC50 / Prolif-CAL-120 IC50)” value stood at 1.0.

Take `FC(F)(F)c1ccc(-c2cnc(CNc3nc(N4CCOCC4)nn4c(C(F)(F)F)cnc34)[nH]2)cc1` [Example 7, 2-(morpholin-4-yl)-7-(trifluoromethyl)-N-({5-[4-(trifluoromethyl)phenyl]-1H-imidazol-2-yl}methyl)imidazo[2,1-f][1,2,4]triazin-4-amine]: the IC50 was not below 100 nM with NCI-H1299; 30 to 100 nM with AU565; 30 to 100 nM in the test with BT474; not below 100 nM in the test on EFM192A; 112 nM in the test with CAL-120-CDK12d-res; not below 100 nM in the test on HCC1806. Besides, the IC50 is not below 100 nM in the test with JHH-7; 30 to 100 nM with HCC1419; 30 to 100 nM in the test with MDA-MB-468; 30 to 100 nM in the test with HUH-7; 30 to 100 nM in the test with HT-144; not below 100 nM in the test on CAL-120. In addition, the values for the IC50 with HCC1143, in the test with MDA-MB-231 and in the test with COV318 were not below 100 nM, 30 to 100 nM and not below 100 nM, respectively. Further, in the test with CAL-120-CDK12d-res, the “Ratio (Prolif-CAL-120-CDK12d-res IC50 / Prolif-CAL-120 IC50)” value is given as 1.1.

Consider `FC(F)(F)c1ccc(-c2nnc(CNc3nc(N4CCOCC4)nn4c(C(F)(F)F)cnc34)[nH]2)cn1` [Example 20, 2-(morpholin-4-yl)-7-(trifluoromethyl)-N-({5-[6-(trifluoromethyl)pyridin-3-yl]-4H-1,2,4-triazol-3-yl}methyl)imidazo[2,1-f][1,2,4]triazin-4-amine], for which, in the test on CAL-120-CDK12d-res, the IC50 turned out to be 118 nM and the “Ratio (Prolif-CAL-120-CDK12d-res IC50 / Prolif-CAL-120 IC50)” value is given as 1.4.

Take `FC(F)(F)Oc1ccc(-c2cnc(CNc3nc(N4CCOCC4)nc4c(C(F)(F)F)cnn34)[nH]2)cc1` [Example 10, 2-(morpholin-4-yl)-N-({5-[4-(trifluoromethoxy)phenyl]-1H-imidazol-2-yl}methyl)-8-(trifluoromethyl)pyrazolo[1,5-a][1,3,5]triazin-4-amine]: in the test on CAL-120-CDK12d-res, the IC50 is 139 nM and the “Ratio (Prolif-CAL-120-CDK12d-res IC50 / Prolif-CAL-120 IC50)” value worked out at 2.0.

As for `FC(F)(F)Oc1ccc(-c2cnc(CNc3nc(N4CCOCC4)nn4c(C(F)(F)F)cnc34)[nH]2)cc1` [Example 8, 2-(morpholin-4-yl)-N-({5-[4-(trifluoromethoxy)phenyl]-1H-imidazol-2-yl}methyl)-7-(trifluoromethyl)imidazo[2,1-f][1,2,4]triazin-4-amine], the IC50 in the test on NCI-H1299 was not below 100 nM; in the test with AU565 it was not above 30 nM; in the test on BT474 it was 30 to 100 nM; with EFM192A, not below 100 nM; in the test with CAL-120-CDK12d-res, 173 nM; with HCC1806 it was 30 to 100 nM. In addition, the IC50 in the test on JHH-7, in the test on HCC1419, with MDA-MB-468, in the test on HUH-7, with HT-144 and in the test with CAL-120 was 30 to 100 nM in each case. For the same molecule, the IC50 in the test on HCC1143, in the test with MDA-MB-231 and in the test with COV318 was not below 100 nM each time. Further, the “Ratio (Prolif-CAL-120-CDK12d-res IC50 / Prolif-CAL-120 IC50)” value with CAL-120-CDK12d-res came to 1.9.

With `FC(F)(F)c1ccc(-c2cnc(CNc3nc(N4CCOCC4)nn4c(C(F)(F)F)cnc34)[nH]2)cn1` [Example 12, 2-(morpholin-4-yl)-7-(trifluoromethyl)-N-({5-[6-(trifluoromethyl)pyridin-3-yl]-1H-imidazol-2-yl}methyl)imidazo[2,1-f][1,2,4]triazin-4-amine], in the test with CAL-120-CDK12d-res, the IC50 was 22.1 nM and the “Ratio (Prolif-CAL-120-CDK12d-res IC50 / Prolif-CAL-120 IC50)” value came to 1.5.

As for `FC(F)(F)Oc1ccc(-c2nnc(CNc3nc(N4CCOCC4)nn4c(C(F)(F)F)cnc34)[nH]2)cn1` [Example 19, 2-(morpholin-4-yl)-N-({5-[6-(trifluoromethoxy)pyridin-3-yl]-4H-1,2,4-triazol-3-yl}methyl)-7-(trifluoromethyl)imidazo[2,1-f][1,2,4]triazin-4-amine], in the test on CAL-120-CDK12d-res, the IC50 came out at 97.1 nM and the “Ratio (Prolif-CAL-120-CDK12d-res IC50 / Prolif-CAL-120 IC50)” value is reported as 1.5.

With `FC(F)(F)c1ccc(-c2cnc(CNc3nc(N4CCOCC4)nc4c(C(F)(F)F)cnn34)[nH]2)cn1` [Example 24, 2-(morpholin-4-yl)-8-(trifluoromethyl)-N-({5-[6-(trifluoromethyl)pyridin-3-yl]-1H-imidazol-2-yl}methyl)pyrazolo[1,5-a][1,3,5]triazin-4-amine], in the test with CAL-120-CDK12d-res, the IC50 was 40.7 nM and the “Ratio (Prolif-CAL-120-CDK12d-res IC50 / Prolif-CAL-120 IC50)” value is given as 1.3.
